Measurements: patent publication US6737383B1, “Herbicidal oxadiazolidines” (priority 1999, dated 2004)

Assays:
[1] = tested on: giant foxtail; assay: Test B pre/postemergence giant foxtail; type: in vivo, Setaria faberii
Procedure, shortened: (§1)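 Response is a visual 0-to-10 score relative to untreated plants, where 0 means no effect and 10 means complete control, taken twelve to sixteen days after application. Treatments went onto soil at planting and onto foliage of 1- to 4-leaf plants, using a surfactant-containing non-phytotoxic solvent.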

[2] = tested on: purple nutsedge; assay: Test B pre/postemergence purple nutsedge; type: in vivo, Cyperus rotundus
Procedure, shortened: as §1

[3] = tested on: bedstraw; assay: Test B pre/postemergence bedstraw; type: in vivo, Galium aparine
Procedure, shortened: as §1

[4] = tested on: soybean; assay: Test B pre/postemergence soybean; type: in vivo, Glycine max
Procedure, shortened: as §1

[5] = tested on: wheat; assay: Test B pre/postemergence wheat; type: in vivo, Triticum aestivum
Procedure, shortened: as §1

[6] = tested on: rape; assay: Test B pre/postemergence rape; type: in vivo, Brassica napus
Procedure, shortened: as §1

[7] = tested on: sugar beet; assay: Test B pre/postemergence sugar beet; type: in vivo, Beta vulgaris
Procedure, shortened: as §1

[8] = tested on: crabgrass; assay: Test B pre/postemergence crabgrass; type: in vivo, Digitaria sanguinalis
Procedure, shortened: as §1

[9] = tested on: morningglory; assay: Test B pre/postemergence morningglory; type: in vivo, Ipomoea hederacea
Procedure, shortened: as §1

[10] = tested on: pigweed; assay: Test B pre/postemergence pigweed; type: in vivo, Amaranthus retroflexus
Procedure, shortened: as §1

[11] = tested on: corn; assay: Test B pre/postemergence corn; type: in vivo, Zea mays
Procedure, shortened: as §1

[12] = tested on: wild oat; assay: Test B pre/postemergence wild oat; type: in vivo, Avena fatua
Procedure, shortened: as §1

[13] = tested on: blackgrass; assay: Test B pre/postemergence blackgrass; type: in vivo, Alopecurus myosuroides
Procedure, shortened: as §1

[14] = tested on: surinam grass; assay: Test B pre/postemergence surinam grass; type: in vivo, Brachiaria decumbens
Procedure, shortened: as §1

[15] = tested on: velvetleaf; assay: Test B pre/postemergence velvetleaf; type: in vivo, Abutilon theophrasti
Procedure, shortened: as §1

[16] = tested on: cocklebur; assay: Test B pre/postemergence cocklebur; type: in vivo, Xanthium strumarium
Procedure, shortened: as §1

[17] = Postemergence, Rate 62 g/ha, scale of 0 to 10, 0 is no effect, 10 is complete control
[18] = Postemergence, Rate 500 g/ha, scale 0 to 10, 0 is no effect, 10 is complete control
[19] = Preemergence, Rate 62 g/ha, scale 0 to 10 (0 no effect, 10 complete control)
[20] = Preemergence, Rate 125 g/ha, scale 0 to 10, 0 is no effect, 10 is complete control
[21] = Preemergence, Rate 500 g/ha, scale of 0 to 10 where 0 is no effect and 10 is complete control
[22] = Rate 250 g/ha, Postemergence, scale of 0 to 10 where 0 is no effect and 10 is complete control
[23] = Postemergence, Rate 125 g/ha, scale 0 to 10, 0 is no effect, 10 is complete control

Question: Which results are given for `CC(C)N(C(=O)n1oc(=O)n(CCCCF)c1=O)c1ccc(Cl)cc1` [Compound 551]?
Answer: Giant foxtail plant response rating [1, 17]: 0; Plant response rating, Giant foxtail [1, 18]: 5; Giant foxtail plant response rating [1, 19]: 10; Giant foxtail plant response rating [1, 20]: 10; Giant foxtail plant response rating (0 to 10 scale) ([1]; Preemergence, Rate 250 g/ha): 10; Giant foxtail plant response rating [1, 21]: 10; Plant response rating, Giant foxtail [1, 22]: 5; Plant response rating, Nutsedge [2, 18]: 0; Nutsedge plant response rating [2, 19]: 0; Nutsedge plant response rating [2, 20]: 0; Nutsedge plant response rating (0 to 10 scale) ([2]; Preemergence, Rate 250 g/ha): 0; Nutsedge plant response rating [2, 21]: 0; Bedstraw plant response rating [3, 17]: 0; Bedstraw plant response rating [3, 23]: 0; Plant response rating, Bedstraw [3, 18]: 9; Bedstraw plant response rating [3, 20]: 8; Bedstraw plant response rating [3, 21]: 10; Plant response rating, Bedstraw [3, 22]: 4; Soybean plant response rating [4, 17]: 2; Plant response rating, Soybean [4, 18]: 3; Soybean plant response rating [4, 19]: 0; Soybean plant response rating [4, 20]: 0; Soybean plant response rating (0 to 10 scale) ([4]; Preemergence, Rate 250 g/ha): 0; Soybean plant response rating [4, 21]: 0; Plant response rating, Soybean [4, 22]: 3; Wheat plant response rating [5, 17]: 0; Plant response rating, Wheat [5, 18]: 3; Wheat plant response rating [5, 19]: 0; Wheat plant response rating [5, 20]: 0; Wheat plant response rating (0 to 10 scale) ([5]; Preemergence, Rate 250 g/ha): 3; Wheat plant response rating [5, 21]: 6; Plant response rating, Wheat [5, 22]: 0; Rape plant response rating [6, 17]: 3; Rape plant response rating [6, 23]: 7; Plant response rating, Rape [6, 18]: 5; Rape plant response rating [6, 19]: 0; Rape plant response rating [6, 20]: 3; Rape plant response rating (0 to 10 scale) ([6]; Preemergence, Rate 250 g/ha): 3; Rape plant response rating [6, 21]: 9; Plant response rating, Rape [6, 22]: 7; Sugarbeets plant response rating [7, 17]: 2; Plant response rating, Sugarbeets [7, 18]: 8; Sugarbeets plant response rating [7, 19]: 2; Sugarbeets plant response rating [7, 20]: 6; Sugarbeets plant response rating (0 to 10 scale) ([7]; Preemergence, Rate 250 g/ha): 7; Sugarbeets plant response rating [7, 21]: 9; Plant response rating, Sugarbeets [7, 22]: 5; Crabgrass plant response rating [8, 17]: 0; Crabgrass plant response rating [8, 23]: 6; Plant response rating, Crabgrass [8, 18]: 9; Crabgrass plant response rating [8, 19]: 9; Crabgrass plant response rating [8, 20]: 9; Crabgrass plant response rating (0 to 10 scale) ([8]; Preemergence, Rate 250 g/ha): 10; Crabgrass plant response rating [8, 21]: 10; Plant response rating, Crabgrass [8, 22]: 8; Morningglory plant response rating [9, 17]: 1; Morningglory plant response rating [9, 23]: 2; Plant response rating, Morningglory [9, 18]: 3; Morningglory plant response rating [9, 19]: 0; Morningglory plant response rating [9, 20]: 0; Morningglory plant response rating (0 to 10 scale) ([9]; Preemergence, Rate 250 g/ha): 0; Morningglory plant response rating [9, 21]: 0; Plant response rating, Morningglory [9, 22]: 4; Redroot pigweed plant response rating [10, 17]: 0; Plant response rating, Redroot pigweed [10, 18]: 7; Redroot pigweed plant response rating [10, 19]: 8; Redroot pigweed plant response rating [10, 20]: 9; Redroot pigweed plant response rating (0 to 10 scale) ([10]; Preemergence, Rate 250 g/ha): 10; Redroot pigweed plant response rating [10, 21]: 10; Plant response rating, Redroot pigweed [10, 22]: 3; Corn plant response rating [11, 17]: 0; Corn plant response rating [11, 23]: 0; Plant response rating, Corn [11, 18]: 0; Corn plant response rating [11, 19]: 0; Corn plant response rating [11, 20]: 0; Corn plant response rating (0 to 10 scale) ([11]; Preemergence, Rate 250 g/ha): 0; Corn plant response rating [11, 21]: 5; Plant response rating, Corn [11, 22]: 0; Wild oats plant response rating [12, 17]: 0; Plant response rating, Wild oats [12, 18]: 5; Wild oats plant response rating [12, 19]: 0; Wild oats plant response rating [12, 20]: 3; Wild oats plant response rating (0 to 10 scale) ([12]; Preemergence, Rate 250 g/ha): 3; Wild oats plant response rating [12, 21]: 9; Plant response rating, Wild oats [12, 22]: 0; Blackgrass plant response rating [13, 17]: 4; Blackgrass plant response rating [13, 23]: 7; Plant response rating, Blackgrass [13, 18]: 7; Blackgrass plant response rating [13, 19]: 3; Blackgrass plant response rating [13, 20]: 7; Blackgrass plant response rating (0 to 10 scale) ([13]; Preemergence, Rate 250 g/ha): 9; Blackgrass plant response rating [13, 21]: 9; Plant response rating, Blackgrass [13, 22]: 7; B. signalgrass plant response rating [14, 17]: 0; B. signalgrass plant response rating [14, 23]: 0; Plant response rating, B. signalgrass [14, 18]: 4; B. signalgrass plant response rating [14, 19]: 4; B. signalgrass plant response rating [14, 20]: 9; B. signalgrass plant response rating (0 to 10 scale, 0 is no effect, 10 is complete control) ([14]; Preemergence, Rate 250 g/ha): 9; B. signalgrass plant response rating [14, 21]: 9; Plant response rating, B. signalgrass [14, 22]: 2; Velvetleaf plant response rating [15, 17]: 0; Plant response rating, Velvetleaf [15, 18]: 3; Velvetleaf plant response rating [15, 19]: 0; Velvetleaf plant response rating [15, 20]: 0; Velvetleaf plant response rating (0 to 10 scale) ([15]; Preemergence, Rate 250 g/ha): 2; Velvetleaf plant response rating [15, 21]: 4; Plant response rating, Velvetleaf [15, 22]: 3; Cocklebur plant response rating [16, 17]: 0; Cocklebur plant response rating [16, 23]: 0; Plant response rating, Cocklebur [16, 18]: 0; Cocklebur plant response rating [16, 19]: 0; Cocklebur plant response rating [16, 20]: 0; Cocklebur plant response rating (0 to 10 scale) ([16]; Preemergence, Rate 250 g/ha): 0; Cocklebur plant response rating [16, 21]: 0; Plant response rating, Cocklebur [16, 22]: 0
